Source: the kinase profiling compilation of Christmann-Franck et al. (2016)
Values joined by “and” are separate entries in the source; they are usually repeats but may differ in a detail not shown here. Equal values may be shown once.

Tests used:
Experiment in all cases: radiometric filter-binding kinase assay, Kinase HotSpot
Details in all cases: compound 0.5 µM; ATP 10 µM
[1] = target: ABL2 (human) (UniProt P42684)
[2] = target: AURKC (human) (UniProt Q9UQB9)
[3] = target: BMX (human) (UniProt P51813)
[4] = target: CAMK2B (human) (UniProt Q13554)
[5] = target: CAMK4 (human) (UniProt Q16566)
[6] = target: CDK2 CCNA2 (human) (UniProt P24941+P20248)
[7] = target: CDK9 CCNT1 (human) (UniProt P50750+O60563)
[8] = target: CSF1R (human) (UniProt P07333)
[9] = target: CSNK2A2 (human) (UniProt P19784)
[10] = target: DAPK1 (human) (UniProt P53355)
[11] = target: DDR2 (human) (UniProt Q16832)
[12] = target: EPHA7 (human) (UniProt Q15375)
[13] = target: EPHB3 (human) (UniProt P54753)
[14] = target: FGFR2 (human) (UniProt P21802)
[15] = target: FRK (human) (UniProt P42685)
[16] = target: HIPK2 (human) (UniProt Q9H2X6)
[17] = target: INSRR (human) (UniProt P14616)
[18] = target: ITK (human) (UniProt Q08881)
[19] = target: LYN (human) (UniProt P07948)
[20] = target: MAP4K2 (human) (UniProt Q12851)
[21] = target: MATK (human) (UniProt P42679)
[22] = system: MKNK1 (human), Q9BUB5 [T385D; 165-205 del]
[23] = target: MKNK2 (human) (UniProt Q9HBH9)
[24] = target: MST4 (human) (UniProt Q9P289)
[25] = target: NEK11 (human) (UniProt Q8NG66)
[26] = target: NTRK2 (human) (UniProt Q16620)
[27] = target: PAK1 (human) (UniProt Q13153)
[28] = target: PASK (human) (UniProt Q96RG2)
[29] = target: PBK (human) (UniProt Q96KB5)
[30] = target: PHKG2 (human) (UniProt P15735)
[31] = target: PLK1 (human) (UniProt P53350)
[32] = target: PRKACA (human) (UniProt P17612)
[33] = target: PRKCA (human) (UniProt P17252)
[34] = target: PRKCB2 (human) (UniProt P05771)
[35] = target: PRKD2 (human) (UniProt Q9BZL6)
[36] = target: PRKG1 (human) (UniProt Q13976)
[37] = target: RIPK2 (human) (UniProt O43353)
[38] = target: RPS6KA1 KD1 KD2 (human) (UniProt Q15418)
[39] = target: SGK3 (human) (UniProt Q96BR1)
[40] = target: SRMS (human) (UniProt Q9H3Y6)
[41] = target: SRPK2 (human) (UniProt P78362)
[42] = target: YES1 (human) (UniProt P07947)
YES1 (human), sequence (P07947 whole entry, looked up): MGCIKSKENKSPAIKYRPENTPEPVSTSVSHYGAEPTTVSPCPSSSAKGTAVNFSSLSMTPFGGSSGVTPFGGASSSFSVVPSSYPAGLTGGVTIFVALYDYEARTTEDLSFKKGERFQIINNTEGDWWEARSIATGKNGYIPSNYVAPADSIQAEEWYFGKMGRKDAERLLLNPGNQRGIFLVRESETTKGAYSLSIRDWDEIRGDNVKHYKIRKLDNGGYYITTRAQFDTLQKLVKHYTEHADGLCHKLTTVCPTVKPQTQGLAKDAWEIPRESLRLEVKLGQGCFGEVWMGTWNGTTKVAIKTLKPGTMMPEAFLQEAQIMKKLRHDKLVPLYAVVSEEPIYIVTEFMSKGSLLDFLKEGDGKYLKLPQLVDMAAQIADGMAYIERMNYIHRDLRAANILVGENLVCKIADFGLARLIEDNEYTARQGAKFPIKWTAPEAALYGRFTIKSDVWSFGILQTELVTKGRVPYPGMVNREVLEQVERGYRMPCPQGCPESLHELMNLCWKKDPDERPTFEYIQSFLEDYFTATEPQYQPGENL

EPHB3 (human), sequence (P54753 whole entry, looked up): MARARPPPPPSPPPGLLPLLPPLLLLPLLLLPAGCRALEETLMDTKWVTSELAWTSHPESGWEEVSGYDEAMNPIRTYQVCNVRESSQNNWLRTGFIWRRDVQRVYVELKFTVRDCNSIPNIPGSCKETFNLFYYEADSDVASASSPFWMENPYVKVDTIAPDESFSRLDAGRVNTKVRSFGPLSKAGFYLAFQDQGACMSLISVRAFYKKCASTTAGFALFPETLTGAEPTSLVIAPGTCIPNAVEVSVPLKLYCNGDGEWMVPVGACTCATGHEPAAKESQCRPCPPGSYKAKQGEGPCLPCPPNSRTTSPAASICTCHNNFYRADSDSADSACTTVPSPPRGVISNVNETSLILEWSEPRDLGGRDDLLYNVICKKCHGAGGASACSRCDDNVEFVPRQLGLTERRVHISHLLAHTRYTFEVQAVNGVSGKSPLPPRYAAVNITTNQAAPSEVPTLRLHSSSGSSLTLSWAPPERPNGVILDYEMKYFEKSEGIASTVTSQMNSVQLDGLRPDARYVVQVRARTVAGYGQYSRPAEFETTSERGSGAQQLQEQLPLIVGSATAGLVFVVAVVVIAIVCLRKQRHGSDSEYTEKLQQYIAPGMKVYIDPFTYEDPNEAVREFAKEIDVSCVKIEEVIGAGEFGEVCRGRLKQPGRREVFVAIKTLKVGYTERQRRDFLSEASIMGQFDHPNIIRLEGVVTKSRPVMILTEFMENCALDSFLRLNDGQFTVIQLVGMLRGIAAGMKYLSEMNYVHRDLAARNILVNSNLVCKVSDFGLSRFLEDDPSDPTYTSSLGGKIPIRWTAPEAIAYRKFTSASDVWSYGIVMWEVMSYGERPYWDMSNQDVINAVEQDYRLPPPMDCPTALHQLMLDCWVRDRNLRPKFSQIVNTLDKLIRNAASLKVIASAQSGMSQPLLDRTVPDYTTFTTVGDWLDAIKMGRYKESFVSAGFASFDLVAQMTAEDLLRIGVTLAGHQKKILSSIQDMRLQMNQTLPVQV
MAP4K2 (human), sequence (Q12851 whole entry, looked up): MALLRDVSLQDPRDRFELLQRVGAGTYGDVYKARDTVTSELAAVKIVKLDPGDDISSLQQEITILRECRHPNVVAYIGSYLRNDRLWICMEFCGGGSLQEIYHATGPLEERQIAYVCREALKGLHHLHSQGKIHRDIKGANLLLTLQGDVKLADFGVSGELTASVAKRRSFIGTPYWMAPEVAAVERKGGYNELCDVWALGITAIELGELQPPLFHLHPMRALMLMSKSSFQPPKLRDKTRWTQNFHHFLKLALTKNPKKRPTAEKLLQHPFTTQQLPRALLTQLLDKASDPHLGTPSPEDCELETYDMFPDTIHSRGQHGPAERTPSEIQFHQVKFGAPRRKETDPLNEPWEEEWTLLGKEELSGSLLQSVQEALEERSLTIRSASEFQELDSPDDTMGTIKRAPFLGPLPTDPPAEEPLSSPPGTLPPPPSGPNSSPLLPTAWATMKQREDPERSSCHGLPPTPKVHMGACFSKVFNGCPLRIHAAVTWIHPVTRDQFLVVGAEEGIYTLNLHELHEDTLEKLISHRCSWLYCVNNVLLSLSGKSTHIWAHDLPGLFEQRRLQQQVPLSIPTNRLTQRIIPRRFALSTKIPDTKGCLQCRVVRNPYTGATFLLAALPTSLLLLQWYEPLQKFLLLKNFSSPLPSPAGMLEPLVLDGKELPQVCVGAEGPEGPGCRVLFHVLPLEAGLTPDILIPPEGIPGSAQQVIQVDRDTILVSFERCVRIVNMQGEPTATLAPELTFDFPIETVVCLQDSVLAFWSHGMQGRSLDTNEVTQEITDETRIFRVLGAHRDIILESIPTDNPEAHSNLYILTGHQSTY
SRMS (human), sequence (Q9H3Y6 whole entry, looked up): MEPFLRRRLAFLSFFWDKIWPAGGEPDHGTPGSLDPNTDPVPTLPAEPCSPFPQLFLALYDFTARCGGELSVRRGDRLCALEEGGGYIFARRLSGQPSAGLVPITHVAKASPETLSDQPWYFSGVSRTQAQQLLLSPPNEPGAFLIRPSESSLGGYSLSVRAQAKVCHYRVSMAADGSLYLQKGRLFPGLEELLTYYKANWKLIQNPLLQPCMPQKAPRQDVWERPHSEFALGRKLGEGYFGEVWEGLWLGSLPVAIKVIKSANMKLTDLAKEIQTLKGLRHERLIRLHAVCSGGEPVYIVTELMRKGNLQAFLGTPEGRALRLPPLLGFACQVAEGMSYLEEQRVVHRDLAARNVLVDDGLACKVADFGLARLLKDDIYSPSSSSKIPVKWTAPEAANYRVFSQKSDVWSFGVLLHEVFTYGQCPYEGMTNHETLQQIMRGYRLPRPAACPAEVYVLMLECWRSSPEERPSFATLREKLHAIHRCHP
CSNK2A2 (human), sequence (P19784 whole entry, looked up): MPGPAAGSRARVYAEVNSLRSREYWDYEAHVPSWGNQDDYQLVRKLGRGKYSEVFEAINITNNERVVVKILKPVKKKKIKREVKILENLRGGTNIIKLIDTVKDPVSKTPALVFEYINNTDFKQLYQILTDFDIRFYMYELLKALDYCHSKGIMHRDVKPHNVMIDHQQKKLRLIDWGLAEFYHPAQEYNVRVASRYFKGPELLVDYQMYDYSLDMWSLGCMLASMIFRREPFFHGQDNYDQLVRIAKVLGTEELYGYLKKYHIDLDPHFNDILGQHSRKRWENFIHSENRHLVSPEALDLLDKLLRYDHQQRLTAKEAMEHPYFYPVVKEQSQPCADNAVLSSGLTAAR
HIPK2 (human), sequence (Q9H2X6 whole entry, looked up): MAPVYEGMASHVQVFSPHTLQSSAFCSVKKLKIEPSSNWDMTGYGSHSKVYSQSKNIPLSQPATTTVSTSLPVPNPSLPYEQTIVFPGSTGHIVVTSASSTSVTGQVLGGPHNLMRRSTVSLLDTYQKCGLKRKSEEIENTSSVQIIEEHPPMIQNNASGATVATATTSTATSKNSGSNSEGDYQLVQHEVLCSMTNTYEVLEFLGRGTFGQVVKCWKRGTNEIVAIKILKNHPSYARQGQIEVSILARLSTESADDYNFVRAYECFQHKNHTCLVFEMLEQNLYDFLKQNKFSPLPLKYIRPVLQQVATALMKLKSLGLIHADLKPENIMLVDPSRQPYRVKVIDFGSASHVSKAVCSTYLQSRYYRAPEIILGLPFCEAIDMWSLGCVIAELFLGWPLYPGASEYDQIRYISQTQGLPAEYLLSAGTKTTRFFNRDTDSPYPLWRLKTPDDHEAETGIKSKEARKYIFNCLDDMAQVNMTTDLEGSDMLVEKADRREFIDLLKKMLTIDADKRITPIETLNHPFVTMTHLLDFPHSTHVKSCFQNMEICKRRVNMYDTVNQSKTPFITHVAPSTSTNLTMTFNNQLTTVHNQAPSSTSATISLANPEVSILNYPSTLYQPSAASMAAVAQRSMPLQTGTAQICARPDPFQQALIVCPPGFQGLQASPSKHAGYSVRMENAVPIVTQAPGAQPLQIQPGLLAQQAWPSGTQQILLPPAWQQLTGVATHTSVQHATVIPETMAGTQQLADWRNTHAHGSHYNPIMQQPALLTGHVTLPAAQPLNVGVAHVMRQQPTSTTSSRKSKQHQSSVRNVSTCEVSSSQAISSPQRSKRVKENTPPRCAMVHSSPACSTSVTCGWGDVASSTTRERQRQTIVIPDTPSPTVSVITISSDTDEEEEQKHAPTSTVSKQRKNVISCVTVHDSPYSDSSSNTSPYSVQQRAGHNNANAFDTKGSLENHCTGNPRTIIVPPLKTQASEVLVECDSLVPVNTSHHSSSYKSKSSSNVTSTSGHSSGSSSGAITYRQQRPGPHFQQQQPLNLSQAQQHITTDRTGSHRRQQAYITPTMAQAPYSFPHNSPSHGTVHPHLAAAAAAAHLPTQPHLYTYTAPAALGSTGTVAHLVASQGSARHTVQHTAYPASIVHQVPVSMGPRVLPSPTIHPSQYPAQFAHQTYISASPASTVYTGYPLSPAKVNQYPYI
CAMK4 (human), sequence (Q16566 whole entry, looked up): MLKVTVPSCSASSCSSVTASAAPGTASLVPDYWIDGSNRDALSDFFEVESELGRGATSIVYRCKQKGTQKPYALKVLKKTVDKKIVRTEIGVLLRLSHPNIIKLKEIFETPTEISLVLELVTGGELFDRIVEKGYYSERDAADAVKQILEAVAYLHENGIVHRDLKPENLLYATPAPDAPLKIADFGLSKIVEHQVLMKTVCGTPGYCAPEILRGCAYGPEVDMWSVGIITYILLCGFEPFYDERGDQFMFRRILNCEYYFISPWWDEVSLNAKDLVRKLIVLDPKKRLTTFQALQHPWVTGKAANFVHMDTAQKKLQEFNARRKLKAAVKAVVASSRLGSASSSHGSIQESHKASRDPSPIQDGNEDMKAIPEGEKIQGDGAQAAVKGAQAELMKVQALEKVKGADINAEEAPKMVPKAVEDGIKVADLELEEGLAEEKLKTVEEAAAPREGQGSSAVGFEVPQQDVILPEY

## Cn1c2ccccc2c2c3c(c4c5ccccc5n(CCC#N)c4c21)CNC3=O
[1]
  residual activity: 42.3%
[2]
  residual activity: 55.7%
[3]
  residual activity: 13.7%
[4]
  residual activity: 51.3%
[5]
  residual activity: 88.1%
[6]
  residual activity: 20.8%
[7]
  residual activity: 46.8%
[8]
  residual activity: 84.1%
[9]
  residual activity: 104%
[10]
  residual activity: 102%
[11]
  residual activity: 73.3%
[12]
  residual activity: 62.6%
[13]
  residual activity: 87.2%
[14]
  residual activity: 79.8%
[15]
  residual activity: 84.7%
[16]
  residual activity: 97.8%
[17]
  residual activity: 82.5%
[18]
  residual activity: 4.32%
[19]
  residual activity: 90.3% and 94.4%
[20]
  residual activity: 5.68%
[21]
  residual activity: 100%
[22]
  residual activity: 75.2%
[23]
  residual activity: 18%
[24]
  residual activity: 89.8%
[25]
  residual activity: 110%
[26]
  residual activity: 0.815%
[27]
  residual activity: 83.3%
[28]
  residual activity: 84.3%
[29]
  residual activity: 84.2%
[30]
  residual activity: 8.4%
[31]
  residual activity: 103%
[32]
  residual activity: 83.7%
[33]
  residual activity: 7.58%
[34]
  residual activity: 9.73%
[35]
  residual activity: 18.7%
[36]
  residual activity: 80.2% and 84.3%
[37]
  residual activity: 55.1%
[38]
  residual activity: 9.7%
[39]
  residual activity: 112%
[40]
  residual activity: 96.6%
[41]
  residual activity: 95%
[42]
  residual activity: 68.7%

## CN(C)CCCn1cc(C2=C(c3c[nH]c4ccccc34)C(=O)NC2=O)c2ccccc21
[1]
  residual activity: 96.3%
[2]
  residual activity: 84.7%
[3]
  residual activity: 101%
[4]
  residual activity: 74.5%
[5]
  residual activity: 89.5%
[6]
  residual activity: 85.2%
[7]
  residual activity: 65.3%
[8]
  residual activity: 76.7%
[9]
  residual activity: 92%
[10]
  residual activity: 87.9%
[11]
  residual activity: 111%
[12]
  residual activity: 97%
[13]
  residual activity: 95.2%
[14]
  residual activity: 95.4%
[15]
  residual activity: 92.3%
[16]
  residual activity: 77.5%
[17]
  residual activity: 91.3%
[18]
  residual activity: 102%
[19]
  residual activity: 104% and 84.1%
[20]
  residual activity: 94.2%
[21]
  residual activity: 100%
[22]
  residual activity: 81.2%
[23]
  residual activity: 85.3%
[24]
  residual activity: 37.2%
[25]
  residual activity: 104%
[26]
  residual activity: 55.8%
[27]
  residual activity: 84.2%
[28]
  residual activity: 67%
[29]
  residual activity: 81.3%
[30]
  residual activity: 97.9%
[31]
  residual activity: 101%
[32]
  residual activity: 72%
[33]
  residual activity: 6.27%
[34]
  residual activity: 12.6%
[35]
  residual activity: 78.8%
[36]
  residual activity: 38.3% and 59.3%
[37]
  residual activity: 87.7%
[38]
  residual activity: 4.67%
[39]
  residual activity: 72.8%
[40]
  residual activity: 104%
[41]
  residual activity: 94.4%
[42]
  residual activity: 84.6%

## COc1ccc(S(=O)(=O)N(CCO)c2ccccc2CN(C)C/C=C/c2ccc(Cl)cc2)cc1
[1]
  residual activity: 97.4%
[2]
  residual activity: 96.8%
[3]
  residual activity: 101%
[4]
  residual activity: 100%
[5]
  residual activity: 97.5%
[6]
  residual activity: 99.7%
[7]
  residual activity: 103%
[8]
  residual activity: 103%
[9]
  residual activity: 93.7%
[10]
  residual activity: 120%
[11]
  residual activity: 96.8%
[12]
  residual activity: 98.9%
[13]
  residual activity: 92.8%
[14]
  residual activity: 98.6%
[15]
  residual activity: 106%
[16]
  residual activity: 107%
[17]
  residual activity: 97%
[18]
  residual activity: 97.1%
[19]
  residual activity: 92.3% and 96.8%
[20]
  residual activity: 92.6%
[21]
  residual activity: 101%
[22]
  residual activity: 103%
[23]
  residual activity: 102%
[24]
  residual activity: 105%
[25]
  residual activity: 105%
[26]
  residual activity: 104%
[27]
  residual activity: 96%
[28]
  residual activity: 103%
[29]
  residual activity: 95.3%
[30]
  residual activity: 103%
[31]
  residual activity: 98.8%
[32]
  residual activity: 104%
[33]
  residual activity: 98.2%
[34]
  residual activity: 102%
[35]
  residual activity: 99.8%
[36]
  residual activity: 93.2% and 94.7%
[37]
  residual activity: 87%
[38]
  residual activity: 108%
[39]
  residual activity: 106%
[40]
  residual activity: 101%
[41]
  residual activity: 98.5%
[42]
  residual activity: 103%

## Cc1cccc(-c2nc(C(C)(C)C)[nH]c2-c2ccc3c(c2)OCO3)n1
[1]
  residual activity: 95.7%
[2]
  residual activity: 91.4%
[3]
  residual activity: 82%
[4]
  residual activity: 96.2%
[5]
  residual activity: 100%
[6]
  residual activity: 117%
[7]
  residual activity: 88.5%
[8]
  residual activity: 102%
[9]
  residual activity: 83.6%
[10]
  residual activity: 102%
[11]
  residual activity: 98.3%
[12]
  residual activity: 81.6%
[13]
  residual activity: 103%
[14]
  residual activity: 105%
[15]
  residual activity: 98.8%
[16]
  residual activity: 101%
[17]
  residual activity: 95.1%
[18]
  residual activity: 95.8%
[19]
  residual activity: 82.8% and 99.2%
[20]
  residual activity: 102%
[21]
  residual activity: 100%
[22]
  residual activity: 86.8%
[23]
  residual activity: 87.8%
[24]
  residual activity: 95.5%
[25]
  residual activity: 90.3%
[26]
  residual activity: 96.4%
[27]
  residual activity: 96.3%
[28]
  residual activity: 78.9%
[29]
  residual activity: 103%
[30]
  residual activity: 107%
[31]
  residual activity: 105%
[32]
  residual activity: 102%
[33]
  residual activity: 99.6%
[34]
  residual activity: 99.9%
[35]
  residual activity: 93.6%
[36]
  residual activity: 74.6% and 91%
[37]
  residual activity: 79%
[38]
  residual activity: 96.4%
[39]
  residual activity: 98%
[40]
  residual activity: 102%
[41]
  residual activity: 95.8%
[42]
  residual activity: 97%
